Experimental data: patent US11969425B2, “Inhibitor of indoleamine-2,3-dioxygenase (IDO)” (InventisBio LLC, priority 2016, dated 2024)

What was measured:
[1] = tested on: kynurenine production in HeLa cells; test: Inhibition of kynurenine production in HeLa cells; type: cell-based, human; conditions: Homo sapiens, HeLa, 48 h, HeLa cells, human IFN-γ 50 ng/mL, kynurenine read at 480 nm, read-out: IC50
Experimental: The effect of compounds described herein on the inhibition of kynurenine production in HeLa cells (derived from human cervical cancer) was determined. HeLa cells were seeded into a 96-well culture plate at a density of 5×10^3 per well in RPMI1640/phenol red free media (from GIBCO) with 2 mM L-glutamine and 10% fetal bovine serum (FBS, from GIBCO) and grown overnight in a 37° C. incubator with 5% CO2. Twenty-four hours later, human IFN-γ (from GIBCO) (final concentration 50 ng/mL) and test compound solutions (serially diluted to different wells) were added to each well with a final volume of 200 uL per well. Forty-eight hours after incubation with compounds, 140 uL supernatant was taken from each well and was transferred to a new 96-well plate. Ten microliters of 6.1 N trichloroacetic acid were added into each well, mixed and incubated at 50° C. for 30 minutes. The reaction mixture was then centrifuged for 10 minutes at 2500 rpm and 100 uL of the supernatant per well was transferred to another 96 well plate and mixed with 100 uL of 2% (w/v) p-dimethylaminobenzaldehyde in acetic acid. The yellow color derived from kynurenine was measured at 480 nm using a SPECTRAmax i3 reader. Each compound concentration was done in triplicates and compound IC50 value was calculated using nonlinear regression using Graphpad Prism 5.0.
The inhibitory activity of representative compounds described herein, compared with another IDO inhibitor, such as INCB-24360, Controls 1 and 2 are shown in Table 2.

[2] = Human hepatocyte clearance study; type: in vitro ADME; conditions: pooled cryopreserved human hepatocytes (suspension); for CLint scaled at 1 µM: human, scaled up from in vitro t1/2, scaling factor 2544.3, read-out: Human Scale-up Clint; for hepatocyte CLint at 1 µM / half-life at 1 µM: pooled human hepatocytes; for hepatocyte CLint at 1 µM: read-out: Human In vitro Clint (μL/min/10^6 cells); for half-life at 1 µM: read-out: Human In vitro T1/2
Experimental: (§1) The in vitro human hepatocyte clearance of compounds described here was studied using pooled human hepatocytes purchased from BioreclamationIVT (Westbury, NY, Cat #X008001, Lot #TQJ). The assay was conducted according to manufacture's instruction. Briefly, 10 mM stock solutions of test compounds and positive control (Verapamil) were prepared in 100% DMSO. Thawing media (50 mL) used in the study consists of: 31 mLWilliams E medium (GIBCO Cat #12551-032); 15 mL isotonic percoll (GE Healthcare Cat #17-0891-09); 500 uL 100XGlutaMax (GIBCO Cat #35050); 750 uL HEPES (GIBCO Cat #15630-080); 2.5 mL FBS (Corning Cat #35-076*CVR); 50 uL human insulin (GIBCO Cat #12585-014) and 5 uL dexamethasone (NICPBP). Incubation media is made of Williams E medium supplemented with 1xGlutaMax. Both thawing medium and incubation medium (serum-free) were placed in a 37° C. water bath for at least 15 minutes prior to use. Compound stock solutions were diluted to 100 μM by combining 198 μL of 50% acetonitrile/50% water and 2 μL of 10 mM stock solution. Verapamil was use as positive control in the assay. Vials of cryopreserved hepatocytes were removed from storage and thawed in a 37° C. water bath with gentle shaking. Contents of the vial were poured into the 50 mL thawing medium conical tube. Vials were centrifuged at 100 g for 10 minutes at room temperature. Thawing medium was aspirated and hepatocytes were re-suspended with serum-free incubation medium to yield ˜1.5×10^6 cells/mL. Hepatocyte viability and density were counted using a Trypan Blue exclusion, and then cells were diluted with serum-free incubation medium to a working cell density of 0.5×10^6 viable cells/mL. Then, a portion of the hepatocytes at 0.5×10^6 viable cells/mL was boiled for 5 minutes prior to adding to the plate as negative control to eliminate the enzymatic activity so that little or no substrate turnover should be observed. The boiled hepatocytes were used to prepare negative samples. Aliquots of 198 μL hepatocytes were dispensed into each well of a 96-well non-coated plate. The plate was placed in the incubator on an orbital shaker at 500 rpm for approximately 10 minutes. Aliquots of 2 μL of the 100 μM test compound or positive control were added into respective wells of the non-coated 96-well plate to start the reaction. This assay was performed in duplicate. The plate was incubated in the incubator on an orbital shaker at 500 rpm for the designated time points. Twenty-five microliter of contents were transferred and mixed with 6 volumes (150 μL) of cold acetonitrile with IS (200 nM imipramine, 200 nM labetalol and 200 nM diclofenac) to terminate the reaction at time points of 0, 15, 30, 60, 90 and 120 minutes. Samples were centrifuged at 3,220 g for 25 minutes and aliquots of 150 μL of the supernatants were used for LC-MS/MS analysis. For data analysis, all calculations were carried out using Microsoft Excel. Peak areas were determined from extracted ion chromatograms. The in vitro half-life (t1/2) of parent compound was determined by regression analysis of the percent parent disappearance vs. time curve. The in vitro half-life (in vitro t1/2) was determined from the slope value: in vitro t1/2=0.693/k. […] Scaling factors for in vivo intrinsic clearance prediction using human hepatocytes are listed as: liver weight (g liver/kg body weight): 25.7; hepatocyte concentration (10^6 cells/g liver): 99; scaling factor: 2544.3.

pooled human hepatocytes = test: Human hepatocyte clearance study; type: in vitro ADME; conditions: pooled human hepatocytes, 120 min
Experimental: as §1

Compound	IC50 [1]	CLint scaled at 1 µM [2]	hepatocyte CLint at 1 µM [2]	half-life at 1 µM [2]	Human Hepatocyte Remaining Percentage @ 120 min (pooled human hepatocytes)
CC(C)CN(c1ncc(C2(C(=O)O)CCC2)cc1Nc1ccc(C#N)cc1)C1CCOCC1 [Compound 91]	0.3 nM	3.3 mL/min/kg	1.3 µL/min/1e6 cells	17.7 h	92
CC(C)CN(CC(C)C)c1ncc(C2(C(=O)O)CCC2)cc1Nc1ccc(Cl)cn1 [Compound 107]	0.4 nM	14 mL/min/kg	5.5 µL/min/1e6 cells	4.2 h	76
CC(C)CN(CC(C)C)c1ncc(C2(C(=O)O)CCC2)cc1Nc1ccc(C#N)cn1 [Compound 106]	0.4 nM	18 mL/min/kg	7 µL/min/1e6 cells	3.3 h	69
CCOc1ncc(Nc2cc(C3(C(=O)O)CCC3)ccc2N(CC)C2CCOCC2)cn1 [Compound 117]	0.9 nM	1.7 mL/min/kg	0.7 µL/min/1e6 cells	35.4 h	93
CC(C)CN(CC(C)C)c1ccc(C(CC(=O)O)C(F)(F)F)cc1NC(=O)Nc1ccc(F)cc1F (stereo not shown) [Control 1, 3-(3-(3-(2,4-difluorophenyl)ureido)-4-(diisobutylamino)phenyl)-4,4,4-trifluorobutanoic acid, reference compound]	0.8 nM	11 mL/min/kg	4.1 µL/min/1e6 cells	5.6 h	76
CCOc1ncc(Nc2cc(C3(C(=O)O)CCC3)ccc2N(CC(C)C)C2CCOCC2)cn1 [Compound 75]	0.3 nM	6.6 mL/min/kg	2.6 µL/min/1e6 cells	8.9 h	88
CC(C)CN(c1ccc(C2(C(=O)O)CCC2)cc1NC(=O)Nc1ccc(F)cc1F)C1CCOCC1 [Compound 25]	0.6 nM	3.9 mL/min/kg	1.5 µL/min/1e6 cells	15 h	89
CC(C)CN(CC(C)C)c1ccc(C2(C(=O)O)CCC2)cc1Nc1ccc(Cl)cn1 [Compound 105]	0.3 nM	13 mL/min/kg	5.1 µL/min/1e6 cells	4.58 h	81
CC(C)CN(CC(C)C)c1ccc(C2(C(=O)O)CCC2)cc1NC(=O)Nc1ccc(F)cc1F [Compound 16]	1.5 nM	1.8 mL/min/kg	0.7 µL/min/1e6 cells	31.4 h	101

The remaining lines, values ahead:

IC50 [1]	CLint scaled at 1 µM [2]	hepatocyte CLint at 1 µM [2]	half-life at 1 µM [2]	Human Hepatocyte Remaining Percentage @ 120 min (pooled human hepatocytes)	Compound
0.2 nM	8.5 mL/min/kg	3.3 µL/min/1e6 cells	6.93 h	85	CCN(c1ccc(C2(C(=O)O)CCC2)cc1Nc1ccc(C#N)cn1)C1CCOCC1 [Compound 118]
0.8 nM	20 mL/min/kg	7.7 µL/min/1e6 cells	2.98 h	63	CC(C)N(CC1CC1)c1ncc(C2(C(=O)O)CCC2)cc1Nc1ccc(Cl)cn1 [Compound 111]
0.5 nM	2.2 mL/min/kg	0.9 µL/min/1e6 cells	26.6 h	97	CCN(c1ncc(C2(C(=O)O)CCC2)cc1Nc1ccc(C#N)cc1)C1CCOCC1 [Compound 125]
0.1 nM	9.3 mL/min/kg	3.6 µL/min/1e6 cells	6.35 h	83	CCN(c1ccc(C2(C(=O)O)CCC2)cc1Nc1ccc(Cl)cn1)C1CCOCC1 [Compound 115]
0.3 nM	3.7 mL/min/kg	1.4 µL/min/1e6 cells	16.1 h	100	CCN(c1ncc(C2(C(=O)O)CCC2)cc1Nc1ccc(Cl)cn1)C1CCOCC1 [Compound 123]
